Where two headings read alike, the source gives them in different places.
Key:
Serotonin 5-HT2A (human) = Serotonin 5-HT2A (human) (Homo sapiens (Human), UniProt P28223); assay: 5-HT2A receptor binding, [3H]-ketanserin competition in membrane fractions; conditions: 1 nM [3H]-ketanserin, Cheng-Prusoff, N=1-3
C57BL/6J mice = assay: Head-Twitch Response (HTR) in mice; format: in vivo; conditions: for ED50: Mus musculus, ip, 0.5 h; for HTR counts over baseline / induction of HTR: compared to vehicle
Experimental: Male C57BL/6J mice (6-8 weeks old) were obtained from Jackson Laboratories (Bar Harbor, ME) and housed in a vivarium at the University of California San Diego, an AAALAC-approved animal facility that meets all federal and state requirements for care and treatment of laboratory animals. All animal experiments were carried out in accordance with NIH guidelines and were approved by the UCSD Institutional Animal Care and Use Committee. Mice were housed up to four per cage in a climate-controlled room on a reverse-light cycle (lights on at 1900 h, off at 0700 h). Animals were provided with ad libitum access to food and water, with the exception of during behavioral testing.
Testing was conducted between 1000 and 1800 h. Head movements were recorded using a head-mounted magnet and a magnetometer coil as described in Halberstadt et al. (Psychopharmacology, 2013, 227(4):727-739). For the head mounted magnet, mice were anesthetized, an incision was made in the scalp, and a neodymium magnet was attached to the dorsal surface of the cranium using dental cement. Following a 2-week recovery period, behavioral experiments were conducted in a well-lit room. At least 7 days occurred between sessions to avoid any carryover effects. Test substances (i.e., dimethyltryptamine (DMT), diethyltryptamine (DET), psilocybin, 6-fluoro-diethyltryptamine (6-F-DET), compounds 3-4, 6, 9, 12-13, 22, 33, 41, 69, 88, 166, and 178) were administered intraperitoneally (IP) at a volume of 5 mL/kg. Mice were treated with vehicle (saline) or 6 doses of the test compound and then placed in a glass cylinder surrounded by a magnetometer coil and tested for 30 min. Coil voltage was filtered (1 kHz lowpass), digitized (20 kHz sampling rate) and saved to disk using a Powerlab/8SP with LabChart v 7.3.2 (ADInstruments, Colorado Springs, CO).
The entire 30 min recordings were examined for head twitches. Established procedures based on artificial intelligence were used to identify head twitches in the recordings (Scientific Reports, 2020, 10(1):1-12). HTR counts were analyzed using one-way analyses of variance (ANOVA), followed by post hoc pairwise comparisons between individual groups and vehicle using Dunnett's multiple comparisons test. […] Median effective doses (ED50 values) and 95% confidence intervals (95% CI) were calculated using nonlinear regression (Prism 9.0.2, GraphPad Software, San Diego, CA) (Table 4 and FIGS. 1-3).

[1] = Metabolic stability in cryopreserved human hepatocytes; format: in vitro ADME; conditions: cryopreserved hepatocytes, human hepatocytes, 1 μM, 37° C.
Experimental: (§1) The metabolic stability of a test compounds were assessed by monitoring disappearance of each compound in the presence of cryopreserved hepatocytes for up to 1 hour at 37° C. Following protein precipitation and centrifugation, the samples were analyzed by UPLC-MS-MS. Test Compound stock solutions (10 mM) were diluted 1 in 100 (2 μL 10 mM DMSO stock+198 μL 50:50 acetonitrile:water) to provide a 100 μM working solution. Following addition of test compounds to buffer, samples were pre-incubated at 37° C. for 5 minutes prior to initiating the incubation by the addition of test compounds to hepatocytes (these were held at 37° C. during pre-incubation period). Aliquots were sampled at 0, 5, 10, 20, 40 and 60 min and added to ice cold acetonitrile to terminate the reaction and precipitate proteins. All samples were mixed, centrifuged, and the supernatants were analyzed by UPLC-MS-MS using a Phenomenex Luna Omega […], C18 100 Å, 50×2.1 mm column. The final incubation conditions were as follows: hepatocytes 0.5×10^6 viable cells/mL, test compound 1 μM (n=1), acetonitrile concentration<0.01% (v/v) and DMSO concentration<0.01% (v/v). The intrinsic clearance (Clint) and half-life (T1/2) values are determined from the slope of the parent depletion curve. Positive control compounds with known metabolic clearance were included (diltiazem and naloxone).

5-HT2C = 5-HT2C (Homo sapiens (Human), UniProt P28335); assay: 5-HT2C Gq-mediated calcium flux functional assay; format: cell-based
5-HT2C, sequence (P28335 whole entry, looked up): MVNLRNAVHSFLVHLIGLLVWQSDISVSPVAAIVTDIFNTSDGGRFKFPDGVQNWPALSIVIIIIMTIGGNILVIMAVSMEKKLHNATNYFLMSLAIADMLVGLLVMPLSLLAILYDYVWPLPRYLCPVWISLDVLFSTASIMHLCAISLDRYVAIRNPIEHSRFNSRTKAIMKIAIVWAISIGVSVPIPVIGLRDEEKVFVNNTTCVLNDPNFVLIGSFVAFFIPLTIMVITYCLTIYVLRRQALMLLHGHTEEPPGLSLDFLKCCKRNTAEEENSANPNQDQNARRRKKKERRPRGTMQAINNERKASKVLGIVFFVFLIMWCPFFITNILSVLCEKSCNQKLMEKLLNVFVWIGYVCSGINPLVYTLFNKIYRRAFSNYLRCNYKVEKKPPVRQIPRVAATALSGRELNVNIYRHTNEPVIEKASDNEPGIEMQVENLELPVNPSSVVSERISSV

5-HT2A = 5-HT2A (Homo sapiens (Human), UniProt P28223); assay: 5-HT2A Gq-mediated calcium flux functional assay; format: cell-based
5-HT2B = 5-HT2B (Homo sapiens (Human), UniProt P41595); assay: 5-HT2B Gq-mediated calcium flux functional assay; format: cell-based
5-HT2B, sequence (P41595 whole entry): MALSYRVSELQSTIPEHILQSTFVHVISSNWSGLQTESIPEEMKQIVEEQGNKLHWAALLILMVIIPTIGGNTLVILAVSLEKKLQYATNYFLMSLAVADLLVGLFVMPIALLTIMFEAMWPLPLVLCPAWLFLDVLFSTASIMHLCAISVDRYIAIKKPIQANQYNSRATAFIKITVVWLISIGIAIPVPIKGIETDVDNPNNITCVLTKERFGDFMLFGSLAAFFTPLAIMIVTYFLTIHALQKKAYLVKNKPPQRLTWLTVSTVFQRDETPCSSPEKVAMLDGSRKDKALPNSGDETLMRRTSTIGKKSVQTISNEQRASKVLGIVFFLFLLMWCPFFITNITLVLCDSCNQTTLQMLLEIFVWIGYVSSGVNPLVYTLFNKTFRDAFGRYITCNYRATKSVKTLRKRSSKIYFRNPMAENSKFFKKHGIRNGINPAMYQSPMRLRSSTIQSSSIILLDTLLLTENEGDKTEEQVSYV

human hepatocytes = assay: Metabolic stability in cryopreserved human hepatocytes; format: in vitro ADME; conditions: human hepatocytes, 1 μM, 37° C.
Experimental: as §1

5-HT1A = 5-HT1A (Homo sapiens (Human), UniProt P08908); assay: 5-HT1A Gi/o-mediated cAMP inhibition, GloSensor assay; format: cell-based
[2] = read-out: HTR ED50 μmol/kg (95% CI)
[3] = read-out: HTR ED50 mg/kg (95% CI)
[4] = cAMP inhibition, 0.2 μM isoproterenol, IA = Inactive

Row | Structure (SMILES) | 5-HT2A pKi ± SEM (Serotonin 5-HT2A (human)) | ED50 (C57BL/6J mice; [2]) [µmol/kg] | ED50 (C57BL/6J mice; [3]) [mg/kg] | EC50 (5-HT2C) [nM] | 5-HT2C-Ca2+ FLUX Emax (% 5-HT) (5-HT2C; IA = Inactive, N=1-3) | EC50 (5-HT2A) [nM] | 5-HT2A-Ca2+ FLUX Emax (% 5-HT) (5-HT2A; IA = Inactive, N=1-3) | EC50 (5-HT2B) [nM] | 5-HT2B-Ca2+ FLUX Emax (% 5-HT) (5-HT2B; IA = Inactive, N=1-3) | also measured
1 | CCN(C)CCc1c[nH]c2c(F)cc(F)cc12 [compound 69, 2-(5,7-difluoro-1H-indol-3-yl)-N-ethyl-N-methylethan-1-amine] | 6.90 ± 0.002 | 4.81 | 1.32 |  |  |  |  |  |  | 
2 | C=CCN1CC[C@]23c4c5ccc(O)c4O[C@H]2C(=O)CC[C@@]3(O)[C@H]1C5 [naloxone, reference compound] |  |  |  |  |  |  |  |  |  | half-life at 1 μM [1]: 10 min; hepatocyte CLint at 1 μM ([1]; read-out: Clint (μL/min/10^6 cells)): 138 µL/min/1e6 cells
3 | CCN(C)CCc1c[nH]c2c(F)cc(OC)cc12 [compound 88, N-ethyl-2-(7-fluoro-5-methoxy-1H-indol-3-yl)-N-methylethan-1-amine] | 6.71 ± 0.31 | 1.95 | 0.56 | 20.4 | 86.8 ± 1.4 | 1.95 | 90.6 ± 0.8 | 5.62 | 37.5 ± 0.7 | 
4 | COc1ccc([C@@H]2Sc3ccccc3N(CCN(C)C)C(=O)[C@@H]2OC(C)=O)cc1 [diltiazem, reference compound] |  |  |  |  |  |  |  |  |  | Clint (μL/min/10^6 cells) (human hepatocytes): 32 μL/min/10^6 cells; T1/2 (human hepatocytes): 44 min
5 | CCCN(CCc1c[nH]c2ccc(F)cc12)C1CCC1 [compound 33, N-(2-(5-fluoro-1H-indol-3-yl)ethyl)-N-propylcyclobutanamine] | 6.25 ± 0.003 | 2.55 | 0.79 | 19.1 | 105.4 ± 1.8 | 0.49 | 107.0 ± 1.9 | 0.589 | 115.6 ± 2.2 | 5-HT2C-Ca2+ FLUX pEC50 (5-HT2C; IA = Inactive, N=1-3): 7.72 ± 0.05; 5-HT2A-Ca2+ FLUX pEC50 (5-HT2A; IA = Inactive, N=1-3): 9.31 ± 0.06; EC50 (5-HT1A): 14.5 nM; 5-HT1A-cAMP Emax (% 5-HT) (5-HT1A; [4]): 100.7 ± 1.3 % 5-HT; 5-HT1A-cAMP pEC50 (5-HT1A; [4]): 7.84 ± 0.04; 5-HT2B-Ca2+ FLUX pEC50 (5-HT2B; IA = Inactive, N=1-3): 9.23 ± 0.07
6 | CCCN(CC)CCc1c[nH]c2c(F)cc(OC)cc12 [compound 41, N-ethyl-N-(2-(7-fluoro-5-methoxy-1H-indol-3-yl)ethyl)propan-1-amine] | 6.15 ± 0.34 | 3.56 | 1.12 |  |  |  |  |  |  | 
7 | CCCN(CC)CCc1c[nH]c2cc(F)c(F)cc12 [Example 9, N-(2-(5,6-difluoro-1H-indol-3-yl)ethyl)-N-ethylpropan-1-amine] | 6.15 ± 0.21 | 3 | 0.91 | 19.1 | 100.7 ± 3.0 | 1.02 | 105.7 ± 1.9 | 1.7 | 96.6 ± 2.0 | HTR counts over baseline / induction of HTR (C57BL/6J mice): significant increase; melting point: 83 to 86 °C; EC50 (5-HT1A): 229 nM; 5-HT1A-cAMP Emax (% 5-HT) (5-HT1A; [4]): 89.1 ± 2.9 % 5-HT
8 | CN(C)CCc1c[nH]c2cccc(O)c12 [psilocin, reference compound] |  |  |  |  |  |  |  |  |  | Duration of HTR above baseline (C57BL/6J mice; C57BL/6J mice, ascending and descending arm dose): about 35 minutes
9 | CCCN(CCc1c[nH]c2ccc(F)cc12)C(C)CC (centres unmarked) [compound 22, N-(2-(5-fluoro-1H-indol-3-yl)ethyl)-N-propylbutan-2-amine] | 5.97 ± 0.02 | 12.4 | 3.88 | 50.1 | 97.5 ± 2.6 | 0.891 | 105.4 ± 1.6 | 0.813 | 98.9 ± 1.6 | EC50 (5-HT1A): 324 nM; 5-HT1A-cAMP Emax (% 5-HT) (5-HT1A; [4]): 102.90 ± 1.9 % 5-HT
10 | CCCN(C)CCc1c[nH]c2ccc(F)cc12 [Example 13, N-(2-(5-fluoro-1H-indol-3-yl)ethyl)-N-methylpropan-1-amine] | 6.72 ± 0.12 | 4.81 | 1.13 | 1.51 | 115.0 ± 4.0 | 1.58 | 103.0 ± 1.1 | 2.63 | 77.0 ± 1.2 | melting point: 80 to 82 °C; EC50 (5-HT1A): 245 nM; 5-HT1A-cAMP Emax (% 5-HT) (5-HT1A; [4]): 85.8 ± 2.5 % 5-HT
11 | CCN(CC)CCc1c[nH]c2cc(F)ccc12 [6-F-DET, 6-fluoro-N,N-diethyltryptamine, reference compound] |  |  |  |  |  |  |  |  |  | HTR counts over baseline / induction of HTR (C57BL/6J mice): inactive
12 | C=CC(C)N(C)CCc1c[nH]c2ccc(F)cc12 (centres unmarked) [compound 178, N-(2-(5-fluoro-1H-indol-3-yl)ethyl)-N-methylbut-3-en-2-amine] | 6.25 | 3.53 | 0.87 | 15.8 | 87.4 ± 1.5 | 5.37 | 84.7 ± 1.2 | 5.5 | 27.7 ± 0.5 | 
13 | CCN(CC)CCc1c[nH]c2cccc(F)c12 [Example 8, N,N-diethyl-2-(4-fluoro-1H-indol-3-yl)ethan-1-amine] | 6.09 |  |  |  |  |  |  |  |  | HTR counts over baseline / induction of HTR (C57BL/6J mice): inactive
14 | CCCN(CC)CCc1c[nH]c2c(F)cc(C)cc12 [compound 166, N-ethyl-N-(2-(7-fluoro-5-methyl-1H-indol-3-yl)ethyl)propan-1-amine] | 5.96 ± 0.25 | 6.56 | 1.96 | 200 | 94.6 ± 1.7 | 18.2 | 98.1 ± 0.7 | 33.1 | 95.9 ± 0.7 | 
